Experimental data published in patent publication US6274715A, “Tricyclic erythromycin derivatives” (priority 1997, dated 2001).
Converted amounts (≈) assume the structure as drawn.

Experiments:
Type in all cases: cell-based
[1] = test system: STAPHYLOCOCCUS AUREUS ATCC 6538P; experiment: In vitro antibacterial activity, MIC, BHI agar dilution; conditions: S. aureus ATCC 6538P, 35-37° C., 20 to 24 hours, unit assumed
[2] = test system: STAPHYLOCOCCUS AUREUS A5177; experiment: as above; conditions: S. aureus A5177, unit assumed
[3] = test system: STAPHYLOCOCCUS AUREUS A-5278; experiment: as above; conditions: S. aureus A-5278, unit assumed
[4] = test system: STAPHYLOCOCCUS AUREUS CMX 642A; experiment: as above; conditions: S. aureus CMX 642A, unit assumed
[5] = test system: STAPHYLOCOCCUS AUREUS NCTC10649M; experiment: as above; conditions: S. aureus NCTC10649M, unit assumed
[6] = test system: STAPHYLOCOCCUS AUREUS CMX 553; experiment: as above; conditions: S. aureus CMX 553, unit assumed
[7] = test system: STAPHYLOCOCCUS AUREUS 1775; experiment: as above; conditions: S. aureus 1775, unit assumed
[8] = test system: STAPHYLOCOCCUS EPIDERMIDIS 3519; conditions: S. epidermidis 3519; BHI agar; unit assumed
[9] = test system: EN[…] ATCC 8043; experiment: In vitro antibacterial activity, MIC, BHI agar dilution; conditions: E. faecium ATCC 8043, unit assumed
Summary of the method: (§1)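 Agar dilution in BHI: plates inoculated with 1:100 dilutions of organisms (1:10 for Micrococcus and Streptococcus), incubated 20-24 h at 35-37° C, then inspected for the lowest inhibitory concentration against a drug-free growth control.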

[10] = test system: M[…] ATCC 4698; experiment: as above; conditions: M. luteus ATCC 4698, unit assumed
Summary of the method: as §1

[11] = test system: M[…] ATCC 9341; experiment: as above; conditions: M. luteus ATCC 9341, unit assumed
Summary of the method: as §1

[12] = test system: STR[…] 508; experiment: as above; conditions: S. agalactiae CMX 508, unit assumed
Summary of the method: as §1

[13] = test system: STREPTOCOCCUS BOVIS A-5169; experiment: as above; conditions: S. bovis A-5169, unit assumed
[14] = test system: STREPTOCOCCUS PYOGENES EES61; experiment: as above; conditions: S. pyogenes EES61, unit assumed
[15] = test system: STREPTOCOCCUS PYOGENES 930; experiment: as above; conditions: S. pyogenes 930, unit assumed
[16] = test system: STREPTOCOCCUS PYOGENES PIU 2548; experiment: as above; conditions: S. pyogenes PIU 2548, unit assumed
[17] = test system: ESCHERICHIA COLI JUHL; conditions: E. coli JUHL; BHI agar; unit assumed
[18] = test system: ESCHERICHIA COLI SS; experiment: In vitro antibacterial activity, MIC, BHI agar dilution; conditions: E. coli SS, unit assumed
[19] = test system: ESCHERICHIA COLI DC-2; experiment: as above; conditions: E. coli DC-2, unit assumed
[20] = test system: ESCHERICHIA COLI H560; experiment: as above; conditions: E. coli H560, unit assumed
[21] = test system: ESCHERICHIA COLI KNK 437; conditions: E. coli KNK 437; BHI agar; unit assumed
[22] = test system: ENTEROBACTER AEROGENES ATCC 13048; experiment: In vitro antibacterial activity, MIC, BHI agar dilution; conditions: E. aerogenes ATCC 13048, unit assumed
[23] = test system: KLEBSIELLA PNEUMONIAE ATCC 8045; experiment: as above; conditions: K. pneumoniae ATCC 8045, unit assumed
[24] = test system: PROVIDENCIA STUARTII CMX 640; conditions: P. stuartii CMX 640; BHI agar; unit assumed
[25] = test system: PSEUDOMONAS AERUGINOSA BMH10; experiment: In vitro antibacterial activity, MIC, BHI agar dilution; conditions: P. aeruginosa BMH10, unit assumed
[26] = test system: PSEUDOMONAS AERUGINOSA 5007; experiment: as above; conditions: P. aeruginosa 5007, unit assumed
[27] = test system: PSEUDOMONAS AERUGINOSA K799/WT; experiment: as above; conditions: P. aeruginosa K799/WT, unit assumed
[28] = test system: PSEUDOMONAS CEPACIA 296I; experiment: as above; conditions: P. cepacia 296I, unit assumed
[29] = test system: PSEUDOMONAS AERUGINOSA DPHD-5263; experiment: as above; conditions: P. aeruginosa DPHD-5263, unit assumed
[30] = test system: PSEUDOMONAS AERUGINOSA DPHD-2862; experiment: as above; conditions: P. aeruginosa DPHD-2862, unit assumed
[31] = test system: CANDIDA ALBICANS CCH 442; experiment: as above; conditions: C. albicans CCH 442, unit assumed
[32] = test system: MYCOBACTERIUM SMEGMATIS ATCC 114; experiment: as above; conditions: M. smegmatis ATCC 114, unit assumed
[33] = test system: PSEUDOMONAS AERUGINOSA K799/61; experiment: as above; conditions: P. aeruginosa K799/61, unit assumed

SMILES | MIC [1] [µg/mL] | MIC [2] [µg/mL] | MIC [3] [µg/mL] | MIC [4] [µg/mL] | MIC [5] [µg/mL] | MIC [6] [µg/mL] | MIC [7] [µg/mL] | MIC [8] [µg/mL] | MIC [9] [µg/mL] | MIC [10] [µg/mL] | MIC [11] [µg/mL] | MIC [12] [µg/mL] | MIC [13] [µg/mL] | MIC [14] [µg/mL] | MIC [15] [µg/mL] | MIC [16] [µg/mL] | MIC [17] [µg/mL] | MIC [18] [µg/mL] | MIC [19] [µg/mL] | MIC [20] [µg/mL] | further results
CC[C@H]1OC(=O)[C@H](C)C(=O)[C@H](C)[C@@H](O[C@@H]2O[C@H](C)C[C@H](N(C)C)[C@H]2O)[C@](C)(OC)C[C@@H](C)C2=N[C@@H](C)[C@H](C)N3C(=O)O[C@@]1(C)[C@H]3[C@H]2C [Example 11] | 0.39 (≈ 0.586 µM) | 0.39 (≈ 0.586 µM) | > 100 | 0.39 (≈ 0.586 µM) | 0.39 (≈ 0.586 µM) | 0.39 (≈ 0.586 µM) | > 100 | 0.39 (≈ 0.586 µM) | 0.1 (≈ 0.15 µM) | 0.39 (≈ 0.586 µM) | 0.2 (≈ 0.3 µM) | 0.05 (≈ 0.0751 µM) | 0.01 (≈ 0.015 µM) | 0.005 (≈ 0.00751 µM) | > 100 | 0.39 (≈ 0.586 µM) | 25 (≈ 37.5 µM) | 0.39 (≈ 0.586 µM) | 25 (≈ 37.5 µM) | 6.2 (≈ 9.31 µM) | MIC [21]: 25 µg/mL (≈ 37.5 µM); MIC [22]: 25 µg/mL (≈ 37.5 µM); MIC [23]: 12.5 µg/mL (≈ 18.8 µM); MIC [24]: > 100 µg/mL; MIC [25]: > 100 µg/mL; MIC [26]: > 100 µg/mL; MIC [27]: > 100 µg/mL; MIC [28]: > 100 µg/mL; MIC [29]: > 100 µg/mL; MIC [30]: > 100 µg/mL; MIC [31]: > 100 µg/mL; MIC [32]: 6.2 µg/mL (≈ 9.31 µM)
CC[C@H]1OC(=O)[C@H](C)C(=O)[C@H](C)[C@@H](O[C@@H]2O[C@H](C)C[C@H](N(C)C)[C@H]2O)[C@](C)(OC)C[C@@H](C)C2=N[C@@H]3CN(CCc4ccccc4)C[C@@H]3N3C(=O)O[C@@]1(C)[C@H]3[C@H]2C [Example 23] | 0.2 (≈ 0.255 µM) | 0.2 (≈ 0.255 µM) | > 100 | 0.2 (≈ 0.255 µM) | 0.2 (≈ 0.255 µM) | 0.2 (≈ 0.255 µM) | > 100 | 0.78 (≈ 0.996 µM) | 0.05 (≈ 0.0639 µM) | 0.2 (≈ 0.255 µM) | 0.05 (≈ 0.0639 µM) | ≤ 0.005 | ≤ 0.005 | ≤ 0.005 | > 100 | 0.78 (≈ 0.996 µM) | 50 (≈ 63.9 µM) | 0.05 (≈ 0.0639 µM) | 12.5 (≈ 16 µM) | 6.2 (≈ 7.92 µM) | MIC [21]: 25 µg/mL (≈ 31.9 µM); MIC [22]: 100 µg/mL (≈ 128 µM); MIC [23]: 100 µg/mL (≈ 128 µM); MIC [24]: > 100 µg/mL; MIC [25]: > 100 µg/mL; MIC [26]: > 100 µg/mL; MIC [27]: 100 µg/mL (≈ 128 µM); MIC [33]: 0.2 µg/mL (≈ 0.255 µM); MIC [28]: 100 µg/mL (≈ 128 µM); MIC [29]: > 100 µg/mL; MIC [30]: > 100 µg/mL; MIC [31]: > 100 µg/mL; MIC [32]: 0.39 µg/mL (≈ 0.498 µM)
CC[C@H]1OC(=O)[C@H](C)C(=O)[C@H](C)[C@@H](O[C@@H]2O[C@H](C)C[C@H](N(C)C)[C@H]2O)[C@](C)(OC)C[C@@H](C)C2=N[C@H](CO)CN3C(=O)O[C@@]1(C)[C@H]3[C@H]2C [Example 52] | 0.78 (≈ 1.17 µM) | 0.78 (≈ 1.17 µM) | > 100 | 0.78 (≈ 1.17 µM) | 0.78 (≈ 1.17 µM) | 0.78 (≈ 1.17 µM) | > 100 | 0.78 (≈ 1.17 µM) | 0.2 (≈ 0.299 µM) | 0.39 (≈ 0.584 µM) | 0.1 (≈ 0.15 µM) | 0.05 (≈ 0.0749 µM) | 0.05 (≈ 0.0749 µM) | 0.05 (≈ 0.0749 µM) | > 100 | 1.56 (≈ 2.34 µM) | 100 (≈ 150 µM) | 0.39 (≈ 0.584 µM) | 100 (≈ 150 µM) | 50 (≈ 74.9 µM) | MIC [21]: 100 µg/mL (≈ 150 µM); MIC [22]: > 100 µg/mL; MIC [23]: > 100 µg/mL; MIC [24]: > 100 µg/mL; MIC [25]: > 100 µg/mL; MIC [26]: > 100 µg/mL; MIC [27]: > 100 µg/mL; MIC [33]: 1.56 µg/mL (≈ 2.34 µM); MIC [28]: > 100 µg/mL; MIC [29]: > 100 µg/mL; MIC [30]: > 100 µg/mL; MIC [31]: > 100 µg/mL; MIC [32]: 12.5 µg/mL (≈ 18.7 µM)
